Source: patent publication US11046698B2, “TYK2 inhibitors and uses thereof” (Nimbus Lakshmi, Inc., priority 2017, dated 2021)

Experiments:
Tyk2 kinase domain (JH1) = Tyk2 kinase domain (JH1) (Homo sapiens (Human), UniProt P29597); assay: Tyk2 Radioactive Kinase Assay; format: biochemical; conditions: ATP 10 μM
Protocol: (§1) The Tyk2 and JAK2 radioactive kinase assay measures the percent inhibiton at the Tyk2 kinase domain (JH1) and the percent inhibiton at the JAK2 kinase domain (JH1). Results of the assay are expressed as percent inhibition at 10 μM.

JAK2 kinase domain (JH1) = JAK2 kinase domain (JH1) (Homo sapiens (Human), UniProt O60674); assay: JAK2 Radioactive Kinase Assay; format: biochemical; conditions: ATP 10 μM
JAK2 kinase domain (JH1), sequence (O60674 849-1124): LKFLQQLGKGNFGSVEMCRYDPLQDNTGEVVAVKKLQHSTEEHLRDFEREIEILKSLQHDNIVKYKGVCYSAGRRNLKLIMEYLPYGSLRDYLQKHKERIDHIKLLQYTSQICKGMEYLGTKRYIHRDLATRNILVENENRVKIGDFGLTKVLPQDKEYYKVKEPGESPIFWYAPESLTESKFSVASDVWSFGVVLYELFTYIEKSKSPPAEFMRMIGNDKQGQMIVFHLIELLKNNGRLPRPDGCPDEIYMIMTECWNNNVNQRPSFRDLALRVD
Protocol: as §1

[1] = system: IL-12 induced STAT4 phophorylation mediated by Tyk2/JAK2 (heterodimeric complex); assay: IL-12 Induced pSTAT4 in Human PBMC; format: cell-based; conditions: 1.7 ng/mL IL-12
From the text: The IL-12 Induced pSTAT4 assay evaluates the inhibition of IL-12 induced STAT4 phophorylation mediated by Tyk2/JAK2 (heterodimeric complex).

[2] = system: GM-CSF induced STAT5 phosphorylation mediated by the JAK2/JAK2 homodimeric complex; assay: GM-CSF Induced pSTAT5 in Human PBMC; conditions: 20 min, read-out: PBMC_GMCSF_pSTAT5 IC50 (μM), human PBMC, GM-CSF 5 ng/mL for 20 minutes, pSTAT5 by MSD
[3] = target: human TYK2 (JH2domain-pseudokinase) (Homo sapiens (Human), UniProt P29597); assay: TYK2 JH2 Domain Binding Assay (KINOMEscan, DiscoveRx)
human TYK2 (JH2domain-pseudokinase), sequence (P29597 556-888): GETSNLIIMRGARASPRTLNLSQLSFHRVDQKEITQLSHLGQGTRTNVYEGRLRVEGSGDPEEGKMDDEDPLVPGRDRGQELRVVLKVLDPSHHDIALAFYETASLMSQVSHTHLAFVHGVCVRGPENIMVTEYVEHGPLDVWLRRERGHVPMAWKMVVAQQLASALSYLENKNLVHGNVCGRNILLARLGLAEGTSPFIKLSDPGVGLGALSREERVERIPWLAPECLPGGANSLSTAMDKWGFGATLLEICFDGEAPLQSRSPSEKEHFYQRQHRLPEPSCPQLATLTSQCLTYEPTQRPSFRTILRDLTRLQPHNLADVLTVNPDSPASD
Protocol: Binding constants for compounds of the present invention against the JH2 domain were determined by the following protocol for a KINOMEscan® assay (DiscoveRx). A fusion protein of a partial length construct of human TYK2 (JH2domain-pseudokinase) (amino acids G556 to D888 based on reference sequence NP_003322.3) and the DNA binding domain of NFkB was expressed in transiently transfected HEK293 cells. From these HEK 293 cells, extracts were prepared in M-PER extraction buffer (Pierce) in the presence of Protease Inhibitor Cocktail Complete (Roche) and Phosphatase Inhibitor Cocktail Set II (Merck) per manufacturers' instructions. The TYK2(JH2domain-pseudokinase) fusion protein was labeled with a chimeric double-stranded DNA tag containing the NFkB binding site (5′-[…]-3′) fused to an amplicon for qPCR readout, which was added directly to the expression extract (the final concentration of DNA-tag in the binding reaction is 0.1 nM). […]
Extracts were used directly in binding assays without any enzyme purification steps at a ≥10,000-fold overall stock dilution (final DNA-tagged enzyme concentration <0.1 nM). […] Kds were determined using an 11-point 3-fold compound dilution series with three DMSO control points. […]
Kds were determined using an 11-point 3-fold compound dilution series with three DMSO control points. […] The Kds were determined using a compound top concentration of 30,000 nM. […]

Tyk2 kinase domain (JH1), sequence (P29597 897-1176): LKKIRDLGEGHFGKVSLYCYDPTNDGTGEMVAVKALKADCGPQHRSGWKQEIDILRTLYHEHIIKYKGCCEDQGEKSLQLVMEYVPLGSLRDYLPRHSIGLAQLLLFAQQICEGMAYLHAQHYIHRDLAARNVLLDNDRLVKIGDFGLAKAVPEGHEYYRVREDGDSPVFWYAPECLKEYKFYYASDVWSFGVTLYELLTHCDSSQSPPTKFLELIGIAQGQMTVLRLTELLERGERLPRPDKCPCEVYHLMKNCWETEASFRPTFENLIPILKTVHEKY

In the case of `CNc1cc(Nc2cccn([C@H]3CC[C@@H](N4CCOCC4)CC3)c2=O)nc2c(C(=O)N[C@H]3C[C@H]3F)cnn12` [I-304], the “Tyk2 JH1% Inhibition @ 10 μM” value (Tyk2 kinase domain (JH1); 10 μM compound) is reported as “A (had a percent inhibition at 10 μM lower than 50)” and the “JAK2 JH1% Inhibition @ 10 μM” value (JAK2 kinase domain (JH1); 10 μM compound) is reported as “A (had a percent inhibition at 10 μM lower than 50)”.
With `CNc1cc(-c2cn([C@H]3CCN(CCF)C3)c3ncccc23)nc2c(C(=O)N[C@@H]3C[C@@H]3F)cnn12` [I-1362] the IC50 [1] was < 100 nM.
`CNc1cc(Nc2cc(Cl)cn([C@@H]3CCCOC3)c2=O)nc2c(C(=O)N[C@@H]3C[C@@H]3F)cnn12` [I-773] was tested, and the IC50 [1] was < 100 nM and the IC50 [2] was > 12.5 µM.
`CNc1cc(-c2cn(C(C)C)c3ncc(F)cc23)nc2c(C(=O)N[C@H]3CC[C@H]3O)cnn12` [I-1387] was tested, and the IC50 [1] was < 100 nM.
With `CNc1cc(Nc2cccn([C@H]3CC[C@H](OC)CC3)c2=O)nc2c(C(=O)N[C@H]3COC[C@H]3O)cnn12` [I-746] the “Tyk2 JH1% Inhibition @ 10 μM” value (Tyk2 kinase domain (JH1); 10 μM compound) was “A (had a percent inhibition at 10 μM lower than 50)” and the “JAK2 JH1% Inhibition @ 10 μM” value (JAK2 kinase domain (JH1); 10 μM compound) was “A (had a percent inhibition at 10 μM lower than 50)”.
In the case of `CNc1cc(Nc2cccc([C@@H]3CCCOC3)n2)nc2c(C(=O)N[C@H]3CC[C@@H]3O)cnn12` [I-664], the inhibition at 10 µM (Tyk2 kinase domain (JH1); 10 μM compound) is reported as < 50% and the inhibition at 10 µM (JAK2 kinase domain (JH1); 10 μM compound) is reported as < 50%.
`CNc1cc(Nc2cccn([C@H]3CC[C@@H]3OC)c2=O)nc2c(C(=O)NC3CC3)cnn12` [I-936] showed a Kd [3] of 0.2 to 1 nM.
With `CNc1cc(Nc2cccn([C@H]3CC[C@](C)(OC)CC3)c2=O)nc2c(C(=O)N[C@H]3C[C@H]3F)cnn12` [I-362] the IC50 [1] was < 100 nM and the IC50 [2] was > 50 µM.
With `CNc1cc(Nc2cccnc2OC)nc2c(C(=O)NC3CC4(COC4)C3)cnn12` [I-408] the inhibition at 10 µM (Tyk2 kinase domain (JH1); 10 μM compound) was < 50% and the inhibition at 10 µM (JAK2 kinase domain (JH1); 10 μM compound) was < 50%.
With `CNc1cc(Nc2cccn3ccnc23)cc2c(C(=O)N[C@H]3CC[C@@H]3OC)cnn12` [I-1052] the inhibition at 10 µM (Tyk2 kinase domain (JH1); compound at 10 μM) was < 50%, the Kd [3] was < 0.2 nM and the inhibition at 10 µM (JAK2 kinase domain (JH1); compound at 10 μM) was < 50%. For the same molecule, the IC50 [2] was > 50 µM.
